Tests used:
dopaminergic D3 receptor = dopaminergic D3 receptor (Homo sapiens, UniProt P35462); experiment: Binding assay D3 (h), [3H]methyl-spiperone, CHO cells; set-up: expressed in transfected cells; host or cells: CHO cells; details: read-out: D3 [%]
Protocol: (§1) The specific ligand binding to the receptors is defined as the difference between the total binding and the nonspecific binding determined in the presence of an excess of so unlabelled ligand.
(§2) The specific Ligand binding to the receptor is defined as the difference between total and non-specific binding determined in the presence of an excess of unlabelled ligand. The compounds were tested at a concentration of 1×10^−6 M, and scintillation counting was the method of detection of ligand binding.

[1] = biological target: T1, serotonine transporter (SERT) receptor (Homo sapiens, UniProt P31645); experiment: Binding assay SERT (h), [3H]imipramine, CHO cells; details: read-out: SERT [%]
T1 construct: expressed in transfected cells; host or cells: CHO cells
Protocol: as §1, §2

[2] = biological target: serotoninergic 5-HT6 receptor (Homo sapiens, UniProt P50406); experiment: Binding assay 5-HT6 (h), [3H]LSD, CHO cells; set-up: expressed in transfected cells; host or cells: CHO cells; details: read-out: 5-HT6
Protocol: as §1, §2

dopaminergic D2 receptor = dopaminergic D2 receptor (Homo sapiens, UniProt P14416); experiment: Binding assay D2S (h), [3H]methyl-spiperone, HEK-293 cells; set-up: expressed in transfected cells; host or cells: HEK-293 cells; details: read-out: D2 [%]
Protocol: as §1, §2

[3] = biological target: serotoninergic 5-HT7 receptor (Homo sapiens, UniProt P34969); experiment: Binding assay 5-HT7 (h), [3H]LSD, CHO cells; set-up: expressed in transfected cells; host or cells: CHO cells; details: read-out: 5-HT7
Protocol: as §1, §2

[4] = biological target: T2, serotoninergic 5-HT1A receptor (Homo sapiens, UniProt P08908); experiment: Binding assay 5-HT1A (h), [3H]8-OH-DPAT, HEK-293 cells; set-up: expressed in transfected cells; host or cells: HEK-293 cells; details: read-out: 5-HT1A
T2 sequence (P08908 1-422): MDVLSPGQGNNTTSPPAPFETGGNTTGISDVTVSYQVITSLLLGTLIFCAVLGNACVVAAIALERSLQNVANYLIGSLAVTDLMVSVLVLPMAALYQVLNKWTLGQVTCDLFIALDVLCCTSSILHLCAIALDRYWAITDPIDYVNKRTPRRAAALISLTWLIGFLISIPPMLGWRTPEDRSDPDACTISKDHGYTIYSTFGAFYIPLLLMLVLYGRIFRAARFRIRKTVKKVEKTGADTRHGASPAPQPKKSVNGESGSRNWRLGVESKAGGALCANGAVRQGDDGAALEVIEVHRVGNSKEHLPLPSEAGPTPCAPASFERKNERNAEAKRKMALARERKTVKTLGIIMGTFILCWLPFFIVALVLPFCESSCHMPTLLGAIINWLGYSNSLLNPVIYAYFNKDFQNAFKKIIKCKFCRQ
Protocol: as §1, §2

[5] = biological target: serotoninergic 5-HT2A receptor (Homo sapiens, UniProt P28223); experiment: Binding assay 5-HT2A (h), [3H]ketanserin, HEK-293 cells; set-up: expressed in transfected cells; host or cells: HEK-293 cells; details: read-out: 5-HT2A
Protocol: as §1, §2

adrenergic α1 receptor = experiment: Binding assay α1 (non-selective), [3H]prazosin, rat cerebral cortex; details: percent inhibition of control specific binding; compounds tested at 1×10^−6 M
Protocol: as §1, §2

T1 sequence (P31645 whole entry): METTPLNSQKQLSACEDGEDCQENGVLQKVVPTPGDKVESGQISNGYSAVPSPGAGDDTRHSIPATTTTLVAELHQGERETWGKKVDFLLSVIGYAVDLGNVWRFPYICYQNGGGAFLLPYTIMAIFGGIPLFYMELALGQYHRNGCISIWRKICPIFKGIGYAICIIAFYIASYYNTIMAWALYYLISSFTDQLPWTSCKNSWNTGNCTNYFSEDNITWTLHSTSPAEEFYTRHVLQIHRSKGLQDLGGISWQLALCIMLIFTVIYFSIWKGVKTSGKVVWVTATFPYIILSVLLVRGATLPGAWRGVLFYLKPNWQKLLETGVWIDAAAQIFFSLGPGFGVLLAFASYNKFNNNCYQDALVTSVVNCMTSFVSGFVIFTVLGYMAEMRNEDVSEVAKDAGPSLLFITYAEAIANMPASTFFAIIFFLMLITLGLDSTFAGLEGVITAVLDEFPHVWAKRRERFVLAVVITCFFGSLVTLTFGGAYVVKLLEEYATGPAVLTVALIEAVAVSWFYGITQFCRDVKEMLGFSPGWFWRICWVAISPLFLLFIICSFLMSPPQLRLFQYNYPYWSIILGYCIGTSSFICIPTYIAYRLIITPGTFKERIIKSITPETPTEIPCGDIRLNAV
Chain of serotoninergic 5-HT7 receptor (P34969 whole entry): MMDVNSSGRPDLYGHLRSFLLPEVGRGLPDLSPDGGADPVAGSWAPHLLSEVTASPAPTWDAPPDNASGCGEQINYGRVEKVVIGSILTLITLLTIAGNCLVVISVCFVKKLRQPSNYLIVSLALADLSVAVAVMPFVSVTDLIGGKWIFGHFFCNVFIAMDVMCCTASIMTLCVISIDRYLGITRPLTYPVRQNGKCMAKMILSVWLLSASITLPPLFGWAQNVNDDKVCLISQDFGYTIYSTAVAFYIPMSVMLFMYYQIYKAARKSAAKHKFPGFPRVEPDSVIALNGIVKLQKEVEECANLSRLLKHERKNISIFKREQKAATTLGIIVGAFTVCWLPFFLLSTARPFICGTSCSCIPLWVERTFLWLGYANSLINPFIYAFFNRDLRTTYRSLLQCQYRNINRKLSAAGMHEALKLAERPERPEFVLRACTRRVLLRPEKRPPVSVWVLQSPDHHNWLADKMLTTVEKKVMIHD
Chain of dopaminergic D3 receptor (P35462 whole entry): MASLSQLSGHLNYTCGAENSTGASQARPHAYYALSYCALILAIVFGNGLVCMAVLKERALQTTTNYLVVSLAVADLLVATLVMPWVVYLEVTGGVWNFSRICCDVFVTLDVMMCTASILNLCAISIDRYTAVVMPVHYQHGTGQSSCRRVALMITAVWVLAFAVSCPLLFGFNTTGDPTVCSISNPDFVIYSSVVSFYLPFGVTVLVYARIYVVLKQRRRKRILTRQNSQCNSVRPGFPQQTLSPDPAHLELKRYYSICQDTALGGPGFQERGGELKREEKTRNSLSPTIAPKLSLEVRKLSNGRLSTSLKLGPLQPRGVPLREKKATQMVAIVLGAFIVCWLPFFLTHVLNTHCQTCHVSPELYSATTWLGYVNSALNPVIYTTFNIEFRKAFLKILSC
Chain of serotoninergic 5-HT6 receptor (P50406 whole entry): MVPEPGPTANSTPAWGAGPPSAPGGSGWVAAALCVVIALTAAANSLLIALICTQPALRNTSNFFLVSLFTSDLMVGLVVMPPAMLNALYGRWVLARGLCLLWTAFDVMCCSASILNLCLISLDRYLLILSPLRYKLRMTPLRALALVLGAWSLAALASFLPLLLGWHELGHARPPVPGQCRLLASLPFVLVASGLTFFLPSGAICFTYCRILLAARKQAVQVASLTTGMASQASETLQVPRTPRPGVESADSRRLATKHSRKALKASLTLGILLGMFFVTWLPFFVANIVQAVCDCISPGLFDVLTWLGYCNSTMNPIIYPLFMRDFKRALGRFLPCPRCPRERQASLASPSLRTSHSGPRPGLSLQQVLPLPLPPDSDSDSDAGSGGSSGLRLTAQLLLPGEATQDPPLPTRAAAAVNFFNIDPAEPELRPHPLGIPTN
Chain of serotoninergic 5-HT2A receptor (P28223 whole entry): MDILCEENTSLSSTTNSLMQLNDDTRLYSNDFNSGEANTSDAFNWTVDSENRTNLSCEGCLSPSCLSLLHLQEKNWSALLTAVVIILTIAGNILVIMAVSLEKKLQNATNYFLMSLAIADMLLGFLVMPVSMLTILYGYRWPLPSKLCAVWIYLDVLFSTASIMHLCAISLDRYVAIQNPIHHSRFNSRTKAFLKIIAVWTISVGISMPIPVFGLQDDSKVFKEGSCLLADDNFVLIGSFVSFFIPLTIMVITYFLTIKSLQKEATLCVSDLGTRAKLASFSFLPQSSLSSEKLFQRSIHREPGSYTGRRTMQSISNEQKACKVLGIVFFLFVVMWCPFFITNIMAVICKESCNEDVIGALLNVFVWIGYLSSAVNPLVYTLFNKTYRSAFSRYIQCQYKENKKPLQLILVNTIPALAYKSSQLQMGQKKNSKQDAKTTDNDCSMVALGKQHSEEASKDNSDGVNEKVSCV
Chain of dopaminergic D2 receptor (P14416 1-414 isoform P14416-2): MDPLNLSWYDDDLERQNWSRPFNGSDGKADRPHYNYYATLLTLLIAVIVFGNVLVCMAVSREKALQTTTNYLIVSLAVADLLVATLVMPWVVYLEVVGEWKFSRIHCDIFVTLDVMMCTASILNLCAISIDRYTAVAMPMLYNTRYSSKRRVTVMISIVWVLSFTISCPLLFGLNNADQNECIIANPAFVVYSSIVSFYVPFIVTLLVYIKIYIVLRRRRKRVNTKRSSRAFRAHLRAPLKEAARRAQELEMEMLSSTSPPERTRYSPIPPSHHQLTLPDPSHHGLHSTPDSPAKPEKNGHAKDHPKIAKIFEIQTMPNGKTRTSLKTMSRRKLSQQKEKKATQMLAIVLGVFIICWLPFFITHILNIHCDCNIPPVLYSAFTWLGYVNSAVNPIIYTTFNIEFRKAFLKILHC

SMILES | inhibition at 1 µM (dopaminergic D3 receptor) [%] | inhibition at 1 µM [1] [%] | inhibition at 1 µM [2] [%] | inhibition at 1 µM (dopaminergic D2 receptor) [%] | inhibition at 1 µM [3] [%] | inhibition at 1 µM [4] [%] | inhibition at 1 µM [5] [%] | α1 [%] (adrenergic α1 receptor)
O=S(=O)(NCCCN1CCN(c2nsc3ccccc23)CC1)c1cnc2ccccn12 [Compound 76, N-[3-[4-(1,2-Benzothiazol-3-yl)piperazin-1-yl]propyl]imidazo[1,2-a]pyridine-3-sulphonamide] | 71 | 15 | 70 | 94 | 86 | 90 | 81 | 95
O=S(=O)(NCCCCN1CCN(c2noc3ccccc23)CC1)c1cccc(Cl)c1 [Compound 85, N-[4-[4-(1,2-Benzoxazol-3-yl)piperazin-1-yl]butyl]-3-chlorobenzenesulphonamide] | 77 | 2 | 77 | 100 | 99 | 54 | 88 | 98
O=S(=O)(NCCCCN1CCN(c2noc3ccccc23)CC1)c1cccc(F)c1 [Compound 87, N-[4-[4-(1,2-Benzoxazol-3-yl)piperazin-1-yl]butyl]-3-fluorobenzenesulphonamide] | 77 | 2 | 67 | 87 | 90 | 41 | 89 | 98
O=S(=O)(NCCCCN1CCN(c2noc3ccccc23)CC1)c1cccc(C(F)(F)F)c1 [Compound 91, N-[4-[4-(1,2-Benzoxazol-3-yl)piperazin-1-yl]butyl]-3-(trifluoromethyl)benzenesulphonamide] | 70 | 2 | 83 | 92 | 99 | 40 | 95 | 99
O=S(=O)(NCCCCN1CCN(c2noc3ccccc23)CC1)c1ccc(Cl)c(Cl)c1 [Compound 93, N-[4-[4-(1,2-Benzoxazol-3-yl)piperazin-1-yl]butyl]-3,4-dichlorobenzenesulphonamide] | 86 | 0 | 92 | 98 | 88 | 48 | 90 | 97
O=S(=O)(NCCCCN1CCC(c2noc3cc(F)ccc23)CC1)c1cccc(Cl)c1 [Compound 105, 3-Chloro-N-[4-[4-(6-fluoro-1,2-benzoxazol-3-yl)piperidin-1-yl]butyl]benzenesulphonamide] | 88 | -11 | 87 | 107 | 85 | 41 | 91 | 96
O=S(=O)(NCCCCN1CCC(c2noc3cc(F)ccc23)CC1)c1cccc(F)c1 [Compound 107, 3-Fluoro-N-[4-[4-(6-fluoro-1,2-benzoxazol-3-yl)piperidin-1-yl]butyl]benzenesulphonamide] | 97 | -12 | 75 | 104 | 91 | 38 | 95 | 100
O=S(=O)(NCCCN1CCC(c2noc3cc(F)ccc23)CC1)c1cccc(F)c1 [Compound 108, 3-Fluoro-N-[3-[4-(6-fluoro-1,2-benzoxazol-3-yl)piperidin-1-yl]propyl]benzenesulphonamide] | 98 | -9 | 86 | 106 | 90 | 48 | 88 | 100
O=S(=O)(NCCCCN1CCC(c2noc3cc(F)ccc23)CC1)c1cccc(Br)c1 [Compound 109, 3-Bromo-N-[4-[4-(6-fluoro-1,2-benzoxazol-3-yl)piperidin-1-yl]butyl]benzenesulphonamide] | 99 | 15 | 84 | 100 | 92 | 86 | 93 | 101
O=S(=O)(NCCCCN1CCC(c2noc3cc(F)ccc23)CC1)c1ccc(-c2ccccc2)cc1 [Compound 111, N-[4-[4-(6-Fluoro-1,2-benzoxazol-3-yl)piperidin-1-yl]butyl]-4-phenylbenzenesulphonamide] | 93 | -14 | 95 | 108 | 93 | 39 | 96 | 100
O=S(=O)(NCCCN1CCC(c2noc3cc(F)ccc23)CC1)c1ccc(-c2ccccc2)cc1 [Compound 112, N-[3-[4-(6-Fluoro-1,2-benzoxazol-3-yl)piperidin-1-yl]propyl]-4-phenylbenzenesulphonamide] | 98 | -17 | 94 | 103 | 95 | 20 | 93 | 99
Cc1[nH]c2ccc(Cl)cc2c1C1=CCN(CCCCNS(=O)(=O)c2cccc(Cl)c2)CC1 [Compound 137, N-[4-[4-(5-Chloro-2-methyl-1H-indol-3-yl)-3,6-dihydro-2H-pyridin-1-yl]butyl]-3-chlorobenzenesulphonamide] | 92 | 38 | 91 | 65 | 33 | 39 | 47 | 10
Cc1[nH]c2ccc(Cl)cc2c1C1=CCN(CCCNS(=O)(=O)c2cccc(Cl)c2)CC1 [Compound 138, N-[3-[4-(5-Chloro-2-methyl-1H-indol-3-yl)-3,6-dihydro-2H-pyridin-1-yl]propyl]-3-chlorobenzenesulphonamide] | 57 | 25 | 95 | 40 | 52 | 54 | 62 | 8
Cc1[nH]c2ccc(Cl)cc2c1C1=CCN(CCCCNS(=O)(=O)c2cccc(F)c2)CC1 [Compound 139, N-[4-[4-(5-Chloro-2-methyl-1H-indol-3-yl)-3,6-dihydro-2H-pyridin-1-yl]butyl]-3-fluorobenzenesulphonamide] | 92 | 17 | 96 | 52 | 56 | 57 | 41 | 20
Cc1[nH]c2ccc(Cl)cc2c1C1=CCN(CCCNS(=O)(=O)c2cccc(F)c2)CC1 [Compound 140, N-[3-[4-(5-Chloro-2-methyl-1H-indol-3-yl)-3,6-dihydro-2H-pyridin-1-yl]propyl]-3-fluorobenzenesulphonamide] | 73 | 14 | 92 | 47 | 81 | 56 | 68 | 17
Cc1c(S(=O)(=O)NCCCCN2CCN(c3cccc4[nH]c(=O)[nH]c34)CC2)sc2ccc(Cl)cc12 [Compound 165, 5-Chloro-3-methyl-N-[4-[4-(2-oxo-1,3-dihydrobenzimidazol-4-yl)piperazin-1-yl]butyl]-1-benzothiophene-2-sulfonamide] | 89 | 4 | -16 | 64 | 86 | 70 | 37 | 47

Source: patent US8822517B2, “Arylosulfonamides for the treatment of CNS diseases” (Adamed SP. Z O.O., priority 2010, dated 2014)
